US20140135359A1, “METHODS OF DESIGNING, PREPARING, AND USING NOVEL PROTONOPHORES” (priority 2012, published 2014)
Entries after “also recorded” stand apart in the source; their conditions may differ. Where two headings read alike, the source gives them in different places.

Key:
[1] = test system: isolated rat liver mitochondria; assay: Residual functional capacity / inhibitory effect on ADP-stimulated (state 3) oxygen consumption; assay type: biochemical; conditions: for inhibition of ADP-stimulated oxygen consumption: screening at 100 μM
[2] = test system: isolated rat liver mitochondria; assay: Uncoupling activity: increase in basal (state 4) oxygen consumption by oxygraphy; assay type: biochemical; conditions: for Measured Uncoupling (% uncoupling ± SEM @ 100 μM): Table 1A, relative to ADP-stimulated respiration = 100%; for slope of the linear portion of the concentration-to-activity relationship: logarithmic scales
[3] = test conc. 25 μM, functional capacity (state 3 minus state 4 rate) as % of vehicle-treated mitochondria
[4] = test conc. 100 μM, functional capacity (state 3 minus state 4 rate) as % of vehicle-treated mitochondria
[5] = Suppl. Table 1, 100 μM, 2-3 mitochondrial preparations
[6] = test conc. 25 μM, increase in basal (state 4) oxygen consumption as % of average ADP-stimulated (state 3) rate in vehicle-treated mitochondria
[7] = test conc. 100 μM, increase in basal (state 4) oxygen consumption as % of average ADP-stimulated (state 3) rate in vehicle-treated mitochondria

SMILES | Inhibitory effect (%) ([1]; test conc. 25 μM) | Residual capacity (%) [1, 3] | Inhibitory effect (%) ([1]; test conc. 100 μM) | Residual capacity (%) [1, 4] | Measured Uncoupling Activity (% uncoupling ± SEM @ 100 μM) [2, 5] | Uncoupling (%) [2, 6] | Uncoupling (%) [2, 7] | other results
COc1ccc(C2CC(=O)c3c(O)cc(O)cc3O2)cc1O (racemic) [(±) hesperetin, hesperetin] | 8% | 91 ± 8% | 14% | 81 ± 2% | 5 ± 1 % uncoupling | 1 ± 1% | 5 ± 1% | 
O=C1C[C@@H](c2ccc(O)cc2)Oc2cc(O)cc(O)c21 (racemic) [(±) naringenin, naringenin] |  |  | 31% | 65 ± 7% | 4 ± 2 % uncoupling |  | 4 ± 2% | 
Oc1cc(O)c2c(c1)OC(c1ccc(O)c(O)c1)C(O)C2 (single isomer, unassigned; (+)) [(+) catechin, catechin] |  |  | 2% | 98 ± 5% | −2 ± 0 % uncoupling |  | −2 ± 0% | 
CC(=O)c1ccc(O)cc1 [4-acetylphenol] |  |  | 13% | 87 ± 1% | 0 ± 0 % uncoupling |  | 0 ± 0% | uncoupling activity ([2]; 100 μM, result in words): lack of activity
O=C(/C=C/c1ccccc1)c1ccc(O)cc1 [4′-hydroxychalcone] | 7% | 80 ± 2% | 0% | 26 ± 19% | 74 ± 14 % uncoupling | 13 ± 2% | 74 ± 14% | Measured Uncoupling (% uncoupling ± SEM @ 100 μM) ([2]; 100 μM): 74 ± 14 % uncoupling
O=c1ccoc2cc(O)ccc12 [7-hydroxychromone] |  |  | 14% | 86 ± 2% | 0 ± 0 % uncoupling |  | 0 ± 0% | uncoupling activity ([2]; 100 μM, result in words): no appreciable activity; also recorded: lack of activity
O=C1c2ccccc2C(=O)c2ccccc21 [anthraquinone] |  |  | 15% | 85 ± 21% | −1 ± 1 % uncoupling |  | −1 ± 1% | uncoupling activity ([2]; 100 μM, result in words): inactive
O=c1cc(-c2ccc(O)cc2)oc2cc(O)cc(O)c12 [apigenin] | 28% | 63 ± 9% | 44% | 37 ± 8% | 19 ± 3 % uncoupling | 9 ± 1% | 19 ± 3% | 
O=C(O)c1ccccc1 [benzoic acid] |  |  |  |  |  |  |  | Inhibitory effect (%) [1]: 4%; Residual capacity (%) [1]: 96 ± 3%; Measured Uncoupling Activity (% uncoupling ± SEM @ 100 μM) [2]: 0 ± 1 % uncoupling; Uncoupling (%) [2]: 0 ± 1%
COc1ccc(-c2coc3cc(O)cc(O)c3c2=O)cc1 [biochanin A] | 0% | 27 ± 27% | 0% | 0 ± 0% | 103 ± 22 % uncoupling | 75 ± 36% | 103 ± 22% | uncoupling activity ([2]; 100 μM, result in words): complete uncoupling; Measured Uncoupling (% uncoupling ± SEM @ 100 μM) ([2]; 100 μM): >100 % uncoupling
O=C(/C=C/c1ccc(O)c(O)c1)OCCc1ccccc1 [caffeic acid phenethyl ester] | 5% | 39 ± 12% | 43% | 0 ± 0% |  | 56 ± 13% | 57 ± 35% | 
O=C(O)/C=C/c1ccc(O)c(O)c1 [caffeic acid] |  |  | 21% | 79 ± 9% | 0 ± 1 % uncoupling |  | 0 ± 1% | 
Cc1ccc(C(C)C)cc1O [carvacrol] |  |  | 10% | 83 ± 2% | 7 ± 2 % uncoupling |  | 7 ± 2% | 
Oc1ccccc1O [catechol] |  |  | 12% | 88 ± 1% | 0 ± 0 % uncoupling |  | 0 ± 0% | 
O=c1cc(-c2ccc(O)cc2)oc2c(-c3c(O)cc(O)c4c(=O)cc(-c5ccc(O)cc5)oc34)c(O)cc(O)c12 [cupressuflavone] |  |  | 5% | 95 ± 4% | −2 ± 0 % uncoupling |  | −2 ± 0% | 
O=c1c(-c2ccc(O)cc2)coc2cc(O)ccc12 [daidzein] | 19% | 78 ± 5% | 26% | 68 ± 4% | 6 ± 1 % uncoupling | 3 ± 1% | 6 ± 1% | 
O=c1c(O)c(-c2ccccc2O)oc2cc(O)cc(O)c12 [datiscetin] | 33% | 52 ± 9% | 67% | 0 ± 0% | 33 ± 3 % uncoupling | 15 ± 2% | 33 ± 3% | inhibition of ADP-stimulated oxygen consumption [1]: inhibitory activity; uncoupling potency compared with 2,4-dinitrophenol ([2]; dose-escalation): potency on the order of that of 2,4-dinitrophenol; slope of the linear portion of the concentration-to-activity relationship ([2]; dose-escalation): 0.44

SMILES | Inhibitory effect (%) ([1]; test conc. 25 μM) | Residual capacity (%) [1, 3] | Inhibitory effect (%) ([1]; test conc. 100 μM) | Residual capacity (%) [1, 4] | Measured Uncoupling Activity (% uncoupling ± SEM @ 100 μM) [2, 5] | Uncoupling (%) [2, 6] | Uncoupling (%) [2, 7] | other results
O=C(O[C@@H]1Cc2c(O)cc(O)cc2O[C@@H]1c1cc(O)c(O)c(O)c1)c1cc(O)c(O)c(O)c1 [epigallocatechin gallate] |  |  |  |  |  |  |  | uncoupling activity ([2]; 100 μM, result in words): devoid of activity
COc1cc(/C=C/C(=O)O)ccc1O [ferulic acid] |  |  | 9% | 91 ± 9% | −1 ± 1 % uncoupling |  | −1 ± 1% | 
O=c1cc(-c2ccccc2)oc2ccccc12 [flavone] |  |  | 25% | 75 ± 13% | −1 ± 2 % uncoupling |  | −1 ± 2% | uncoupling activity ([2]; 100 μM, result in words): inactive
Cc1cc(O)c2c(c1)C(=O)c1cc(O)cc(O)c1C2=O [frangulic acid] | 41% | 0 ± 0% | 22% | 0 ± 0% | 78 ± 14 % uncoupling | 59 ± 16% | 78 ± 14% | Measured Uncoupling (% uncoupling ± SEM @ 100 μM) ([2]; 100 μM): 78 ± 14 % uncoupling; uncoupling potency compared with 2,4-dinitrophenol ([2]; dose-escalation): potency on the order of that of 2,4-dinitrophenol; maximal inducible uncoupling ([2]; dose-escalation, 100 μM or below): complete uncoupling
O=c1c(O)c(-c2ccccc2)oc2cc(O)cc(O)c12 [galangin] | 0% | 2 ± 2% | 5% | 0 ± 0% | 95 ± 9 % uncoupling | 102 ± 3% | 95 ± 9% | uncoupling activity ([2]; 25 μM): complete uncoupling; Measured Uncoupling (% uncoupling ± SEM @ 100 μM) ([2]; 100 μM): 95 ± 9 % uncoupling; uncoupling potency compared with 2,4-dinitrophenol ([2]; dose-escalation): potency on the order of that of 2,4-dinitrophenol; slope of the linear portion of the concentration-to-activity relationship ([2]; dose-escalation): 1.39
O=C(O)c1cc(O)c(O)c(O)c1 [gallic acid] |  |  | 2% | 98 ± 1% | −2 ± 1 % uncoupling |  | −2 ± 1% | 
O=c1c(-c2ccc(O)cc2)coc2cc(O)cc(O)c12 [genistein] | 15% | 77 ± 1% | 6% | 20 ± 0% | 74 ± 4 % uncoupling | 8 ± 0% | 74 ± 4% | Measured Uncoupling (% uncoupling ± SEM @ 100 μM) ([2]; 100 μM): 74 ± 4 % uncoupling
COc1cc(/C=C/C(=O)c2ccc(O)cc2O)ccc1O [homobutein] | 15% | 79 ± 7% | 22% | 22 ± 3% | 56 ± 5 % uncoupling | 6 ± 0% | 56 ± 5% | inhibitory effect on oxidative phosphorylation ([1]; 50 μM (FIG. 19)): inhibition of ADP-stimulated consumption; uncoupling activity ([2]; 50 μM in 0.1% DMSO (FIG. 19)): partial uncoupling; Measured Uncoupling (% uncoupling ± SEM @ 100 μM) ([2]; 100 μM): 56 ± 5 % uncoupling
Oc1ccc(O)cc1 [hydroquinone] |  |  | 10% | 90 ± 8% | 0 ± 1 % uncoupling |  | 0 ± 1% | 
O=c1c(O)c(-c2ccc(O)cc2O)oc2cc(O)cc(O)c12 [morin] |  |  | 60% | 39 ± 3% | 1 ± 0 % uncoupling |  | 1 ± 0% | inhibition of ADP-stimulated oxygen consumption [1]: inhibitory activity
CC(=O)c1ccc(O)cc1 [para-acetylphenol] |  |  |  |  |  |  |  | uncoupling activity ([2]; 100 μM, result in words): no appreciable activity
Oc1ccc(C=Cc2cc(O)cc(O)c2)cc1 [resveratrol] |  |  |  |  |  |  |  | inhibition of ADP-stimulated oxygen consumption [1]: inhibitory activity
C(=Cc1ccccc1)c1ccccc1 [stilbene] |  |  |  |  |  |  |  | uncoupling activity ([2]; 100 μM, result in words): inactive
Oc1cc(O)cc(/C=C/c2ccc(O)c(O)c2)c1 [trans-piceatannol] |  |  |  |  | 5 ± 1 % uncoupling |  |  | 
Oc1ccc(/C=C/c2cc(O)cc(O)c2)cc1 [trans-resveratrol] |  |  |  |  | 2 ± 0 % uncoupling |  |  | 
C(=C\c1ccccc1)/c1ccccc1 [trans-stilbene] |  |  |  |  | −1 ± 1 % uncoupling |  |  | 
